In ChEMBL document CHEMBL4819055, “Discovery of 5-(N-hydroxycarbamimidoyl) benzofuran derivatives as novel indoleamine 2,3-dioxygenase 1 (IDO1) inhibitors” (Bioorg Med Chem Lett, 2021):
pIC50: −log10 of the molar value.

Experiments:
[1] = target: T1, Indoleamine 2,3-dioxygenase 1 (Homo sapiens, UniProt P14902); assay: Inhibition of IDO1 (unknown origin) assessed as reduction in kynurenine formation using L-tryptophan as substrate by absorbance based analysis
[2] = target: T1, Indoleamine 2,3-dioxygenase 1; assay: Inhibition of IDO1 in IFNgamma-stimulated human HeLa cells assessed as reduction in kynurenine formation using L-tryptophan as substrate by absorbance based analysis

T1 sequence (P14902 whole entry): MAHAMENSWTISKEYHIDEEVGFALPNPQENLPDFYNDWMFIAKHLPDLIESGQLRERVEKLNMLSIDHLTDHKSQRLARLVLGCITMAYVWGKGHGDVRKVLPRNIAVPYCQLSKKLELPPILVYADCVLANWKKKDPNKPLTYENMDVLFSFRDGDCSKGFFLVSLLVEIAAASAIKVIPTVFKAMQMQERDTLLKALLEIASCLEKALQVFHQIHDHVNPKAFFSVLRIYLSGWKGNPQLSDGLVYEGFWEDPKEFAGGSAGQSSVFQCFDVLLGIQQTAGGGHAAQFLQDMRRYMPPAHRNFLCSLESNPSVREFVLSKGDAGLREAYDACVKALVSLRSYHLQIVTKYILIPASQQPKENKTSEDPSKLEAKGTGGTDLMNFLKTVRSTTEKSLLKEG

Structure (SMILES) | pIC50 [1] | pIC50 [2]
O/N=C(/Nc1ccc(F)c(F)c1)c1ccc2occc2c1 | 4.64 | 4.85
O=C(NCc1ccccc1)c1cccc(N/C(=N/O)c2ccc3occc3c2)c1 | < 4.52 | < 4.52
OCc1cc2cc(/C(=N\O)Nc3cccc(Cl)c3)ccc2o1 | 5.10 | 5.23
O/N=C(/Nc1cccc(F)c1)c1ccc2occc2c1 | 4.49 | 4.70
O/N=C(/Nc1cccc(Oc2ccccc2)c1)c1ccc2occc2c1 | < 4.52 | < 4.52
CC1CCN(C(=O)c2cccc(N/C(=N/O)c3ccc4occc4c3)c2)CC1 | < 4.52 | < 4.52
O/N=C(/NCc1cccc(Cl)c1)c1ccc2occc2c1 | < 4.52 | 5.24
O/N=C(/NCc1ccc(F)c(Cl)c1)c1ccc2occc2c1 | 4.66 | 4.75
O/N=C(/Nc1ccc(F)c(Cl)c1)c1ccc2occc2c1 | 5.28 | 5.74
O/N=C(/Nc1ccccc1)c1ccc2occc2c1 | < 4.52 | 4.72
O/N=C(/Nc1cccc(Br)c1)c1ccc2oc(COCC3CC3)cc2c1 | 6.40 | 5.49
COCc1cc2cc(/C(=N\O)Nc3cccc(Br)c3)ccc2o1 | 6.03 | 5.60
O/N=C(/Nc1cccc(-c2ccccc2)c1)c1ccc2occc2c1 | 4.96 | 4.92
O/N=C(/Nc1cccc(Cl)c1)c1ccc2oc(-c3ccccc3)cc2c1 | 6.05 | 4.97
O/N=C(/NCC1CC1)c1ccc2occc2c1 | < 4.52 | < 4.52
CC(=O)c1cccc(N/C(=N/O)c2ccc3occc3c2)c1 | < 4.52 | < 4.52
O/N=C(/Nc1cccc(F)c1)c1ccc2oc(-c3ccccc3)cc2c1 | 4.96 | 4.97
O/N=C(/NCc1cccs1)c1ccc2occc2c1 | < 4.52 | 4.79
O/N=C(/Nc1ccc(Cl)c(F)c1)c1ccc2occc2c1 | < 4.52 | 4.99
O/N=C(/Nc1cccc(Cl)c1)c1ccc2oc3ccccc3c2c1 | 5.74 | 5.12
CCCCOc1cccc(N/C(=N/O)c2ccc3occc3c2)c1 | < 4.52 | < 4.52
COc1cc(N/C(=N/O)c2ccc3oc4ccccc4c3c2)cc(OC)c1 | < 4.52 | < 4.52
O/N=C(/Nc1cccc(Cc2ccccc2)c1)c1ccc2occc2c1 | < 4.52 | < 4.52

Structure (SMILES) | pIC50 [1] | pIC50 [2]
O/N=C(/Nc1cccc(Br)c1)c1ccc2oc3ccccc3c2c1 | 5.89 | 4.97
O/N=C(/Nc1cccc(Br)c1)c1ccc2occc2c1 | 6.36 | 5.96
COCc1cc2cc(/C(=N\O)Nc3cccc(Cl)c3)ccc2o1 | 6.00 | 5.66
O/N=C(/Nc1cccc(Cl)c1)c1ccc2occc2c1 | 6.16 | 5.82
O/N=C(/Nc1cccc(Br)c1)c1ccc2oc(-c3ccccc3)cc2c1 | 6.05 | 5.07
O/N=C(/Nc1cccc(C(F)(F)F)c1)c1ccc2occc2c1 | 5.92 | 5.72
Cc1ccc(N/C(=N/O)c2ccc3occc3c2)cc1C | < 4.52 | < 4.52
O/N=C(/Nc1ccc(F)c(C(F)(F)F)c1)c1ccc2occc2c1 | 5.92 | 5.66
O/N=C(/NCc1cccc(Cl)c1)c1ccc2oc3ccccc3c2c1 | 5.44 | 4.53
O/N=C(/Nc1ccc(Cl)cc1)c1ccc2occc2c1 | < 4.52 | < 4.52
O=C(NCC1CCCCC1)c1cccc(N/C(=N/O)c2ccc3occc3c2)c1 | < 4.52 | < 4.52
OCc1cc2cc(/C(=N\O)Nc3cccc(Br)c3)ccc2o1 | 6.15 | 5.92
O/N=C(/NCc1ccccc1)c1ccc2occc2c1 | < 4.52 | 4.55
O/N=C(/NCc1ccco1)c1ccc2occc2c1 | < 4.52 | < 4.52
COCc1cc2cc(/C(=N\O)Nc3cccc(F)c3)ccc2o1 | 5.15 | 5.21
O/N=C(/Nc1ccc(F)c(Cl)c1)c1ccc2oc3ccccc3c2c1 | 5.02 | 4.64
O/N=C(/Nc1cccc(F)c1)c1ccc2oc(COCC3CC3)cc2c1 | 5.66 | 5.10
O/N=C(/Nc1cccc(COc2ccccc2)c1)c1ccc2occc2c1 | < 4.52 | < 4.52
O/N=C(/Nc1ccc(F)c(Br)c1)c1ccc2oc3ccccc3c2c1 | 5.62 | 4.79
O/N=C(/Nc1cccc(Cl)c1)c1ccc2oc(COCC3CC3)cc2c1 | 5.82 | 4.75
O/N=C(/Nc1ccc(F)c(Br)c1)c1ccc2occc2c1 | 5.80 | 5.59
OCc1cc2cc(/C(=N\O)Nc3cccc(F)c3)ccc2o1 | 5.77 | 5.62
